Laboratory results published in PubChem BioAssay (NCI).
Values joined by “and” are separate entries in the source; they are usually repeats but may differ in a detail not shown here. Equal values may be shown once.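 Results reflect a 48-hour exposure of cells in 96-well plates to compound at five concentrations. The concentration for 50% growth inhibition is given as GI50. At the TGI there is no net growth.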

Experiments:
Assay in all cases: NCI anticancer screen, dose series, 48 h
COLO 205 colon = test system: COLO 205 colon
K-562 leukemia = test system: K-562 leukemia
KM20L2 colon = test system: KM20L2 colon
M19-MEL melanoma = test system: M19-MEL melanoma
RPMI-8226 leukemia = test system: RPMI-8226 leukemia
SF-268 CNS = test system: SF-268 CNS
SK-MEL-5 melanoma = test system: SK-MEL-5 melanoma
SNB-19 CNS = test system: SNB-19 CNS
SNB-75 CNS = test system: SNB-75 CNS
UACC-257 melanoma = test system: UACC-257 melanoma
UACC-62 melanoma = test system: UACC-62 melanoma
UO-31 renal = test system: UO-31 renal
OVCAR-3 ovarian = test system: OVCAR-3 ovarian
SF-539 CNS = test system: SF-539 CNS

| SMILES | TGI (COLO 205 colon) | TGI (K-562 leukemia) | TGI (KM20L2 colon) | TGI (M19-MEL melanoma) | TGI (RPMI-8226 leukemia) | TGI (SF-268 CNS) | TGI (SK-MEL-5 melanoma) | TGI (SNB-19 CNS) | TGI (SNB-75 CNS) | TGI (UACC-257 melanoma) | TGI (UACC-62 melanoma) | TGI (UO-31 renal) | TGI (OVCAR-3 ovarian) | TGI (SF-539 CNS) | GI50 (COLO 205 colon) | GI50 (K-562 leukemia) | GI50 (SF-268 CNS) | GI50 (SNB-75 CNS) | GI50 (UACC-257 melanoma) | GI50 (UACC-62 melanoma) |
| --- | --- | --- | --- | --- | --- | --- | --- | --- | --- | --- | --- | --- | --- | --- | --- | --- | --- | --- | --- | --- |
| CC(=O)c1cccc(NC(=O)C(=O)C(C(=O)c2ccccc2F)C2OC(=O)c3ccccc32)c1 (stereo unspecified) | 41.9 µM | > 100 µM | > 100 µM | > 100 µM | 87.9 µM | > 100 µM | > 100 µM | > 100 µM | 76.3 µM | > 100 µM | > 100 µM | > 100 µM | – | – | – | – | – | – | – | – |
| CCOC(=O)C1=NN(c2ccccc2)C2=CC(C)=NN(C)C(=S)N21 | > 100 µM | > 100 µM | – | – | > 100 µM | > 100 µM | > 100 µM | > 100 µM | > 100 µM | > 100 µM | > 100 µM | > 100 µM | > 100 µM | > 100 µM | – | – | – | – | – | – |
| O=C1CCc2cc3c(cc21)CC1(Cc2cc4c(cc2C1)CCCC4)C3 | > 100 µM | > 100 µM | – | – | > 100 µM | > 100 µM | > 100 µM | > 100 µM | 75.1 µM | > 100 µM | > 100 µM | > 100 µM | > 100 µM | > 100 µM | – | – | – | – | – | – |
| CC[C@](C)(O)C(=O)O[C@H]1C(=O)O[C@@H]2C[C@H]3C(C)=C[C@H](O)[C@@H](O)[C@]3(C)[C@H]3[C@@]4(O)OC[C@]32[C@@H]1[C@@H](C)[C@H]4O | 86.1 µM | 48.8 µM | 189 µM | 45.5 µM | 24.4 µM | 207 µM | 30 µM | 48.8 µM | 86.5 µM | 149 µM | 94.2 µM | 284 µM | 84.5 µM | 47.2 µM | – | – | – | – | – | – |
| COc1cc(C2c3cc4c(cc3[C@@H](NCCCN(C)C)[C@H]3COC(=O)C23)OCO4)cc(OC)c1O (stereo partly specified) | 3.93 µM and 5.78 µM | > 37.5 µM and 7.84 µM | 2.44 µM and 4.44 µM | 2.17 µM and 3.35 µM | > 37.5 µM and 5.49 µM | 1.51 µM and 7.28 µM | 0.825 µM and 1.15 µM | 1.45 µM and 1.91 µM | 4.21 µM and 6.84 µM | 7.25 µM and 10.3 µM | 0.643 µM and 0.924 µM | 1.1 µM and 1.72 µM | 1.79 µM and 3.76 µM | 1.05 µM and 0.981 µM | 0.714 µM and 1.94 µM | 0.831 µM and 0.413 µM | 0.202 µM and 0.591 µM | 0.393 µM and 0.838 µM | 1.03 µM and 2.1 µM | 0.112 µM and 0.288 µM |
| CCOC(=O)/C=C/c1c[nH]c(C(=O)OCC)c1 | > 100 µM | > 100 µM | > 100 µM | > 100 µM | > 100 µM | > 100 µM | > 100 µM | > 100 µM | > 100 µM | > 100 µM | > 100 µM | > 100 µM | > 100 µM | > 100 µM | – | – | – | – | – | – |
| Nc1nc(Cl)cc(NCCCCCCCCCCCCNc2cc(Cl)nc(N)n2)n1 | > 100 µM | > 100 µM | > 100 µM | > 100 µM | > 100 µM | > 100 µM | 3.72 µM | – | 34 µM | > 100 µM | > 100 µM | > 100 µM | > 100 µM | 72.5 µM | – | – | – | – | – | – |
| ClCc1ccc2ccc3ccc(CCl)nc3c2n1 | 3.15 µM | > 100 µM | 12 µM | 3.97 µM | 13.1 µM | 55 µM | 3.13 µM | 27.9 µM | 5.83 µM | 3.38 µM | 2.64 µM | 3.21 µM | 4.81 µM | 5.85 µM | – | – | – | – | – | – |
